From US7279494B2, “Antimicrobial [3.1.0] bicyclohexylphenyl-oxazolidinone derivatives and analogues” (Pfizer Inc., priority 2003, dated 2007) come the findings set out here.

Values after ≈ are worked out from the molar mass of the structure shown. Bounds are passed on as bounds.

Assay type in all cases: cell-based
For one assay, the system named is S. aureus UC9213. Description: MIC by standard agar dilution, S. aureus UC9213. Conditions: Staphylococcus aureus, UC9213, Mueller Hinton agar, incubated overnight at 35° C. From the text: (§1) The in vitro activity of compounds of the subject invention may be assessed by standard testing procedures such as the determination of minimum inhibitory concentration (MIC) by agar dilution as described in “Approved Standard. Methods for Dilution Antimicrobial Susceptibility Tests for Bacteria that Grow Aerobically,” 3rd ed., published 1993 by the National Committee for Clinical Laboratory standards, Villanova, Pa., USA.
(§2) The in vitro MICs of test compounds may be determined by a standard agar dilution method. A stock drug solution of each analog is prepared in a preferred solvent, usually DMSO:H2O (1:3). Serial 2-fold dilutions of each sample are made using 1.0 mL aliquots of sterile distilled water. To each 1.0 mL aliquot of drug is added 9 mL of molten Mueller Hinton agar medium. The drug-supplemented agar is mixed, poured into 15×100 mm petri dishes, and allowed to solidify and dry prior to inoculation.
(§3) Vials of each of the test organisms are maintained frozen in the vapor phase of a liquid nitrogen freezer. Test cultures are grown overnight at 35° C. on the medium appropriate for the organism. Colonies are harvested with a sterile swab, and cell suspensions are prepared in Trypticase Soy broth (TSB) to equal the turbidity of a 0.5 McFarland standard. A 1:20 dilution of each suspension is made in TSB. The plates containing the drug supplemented agar are inoculated with a 0.001 mL drop of the cell suspension using a Steers replicator, yielding approximately 10^4 to 10^5 cells per spot. The plates are incubated overnight at 35° C.
(§4) Following incubation the Minimum Inhibitory Concentration (MIC μg/mL), the lowest concentration of drug that inhibits visible growth of the organism, is read and recorded.

Another assay deals with S. pneumoniae UC9912. Nature of the assay: MIC by standard agar dilution, S. pneumoniae UC9912. Particulars: Streptococcus pneumoniae, UC9912, Mueller Hinton agar, incubated overnight at 35° C.
Source text: as §1, §2, §3, §4

Another assay deals with H. influenzae 30063. Description: MIC by standard agar dilution, H. influenzae 30063. Particulars: Haemophilus influenzae, 30063, agar dilution, Mueller Hinton agar, incubated overnight at 35° C.; read-out: H. influenzae 30063 MIC.
Source text: as §1, §2, §3, §4
On the technique in general: In agar dilution, organisms are placed on agar that contains the substance at set levels.

With `CC(=O)NC[C@H]1CN(c2ccc([C@H]3[C@@H]4CN(C(=O)c5cc[nH]n5)C[C@@H]43)c(F)c2)C(=O)O1` [Example 38, N-[((5S)-3-{3-fluoro-4-[exo-(1R,5S)-3-(1H-pyrazole-3-carbonyl)-3-azabicyclo[3.1.0]hex-6-yl]phenyl}-2-oxo-1,3-oxazolidin-5-yl)methyl]acetamide], the MIC was 2 µg/mL (≈ 4.68 µM) in the assay on S. aureus UC9213, 2 µg/mL (≈ 4.68 µM) against S. pneumoniae UC9912 and 8 µg/mL (≈ 18.7 µM) with H. influenzae 30063.
On to `CC(=O)NC[C@H]1CN(c2ccc([C@H]3[C@@H]4CN(C(=O)c5c[nH]cn5)C[C@@H]43)c(F)c2)C(=O)O1` [Example 39, N-[((5S)-3-{3-fluoro-4-[exo-(1R,5S)-3-(1H-imidazole-4-carbonyl)-3-azabicyclo[3.1.0]hex-6-yl]phenyl}-2-oxo-1,3-oxazolidin-5-yl)methyl]acetamide], for which the values for the MIC against S. aureus UC9213, in the assay on S. pneumoniae UC9912 and with H. influenzae 30063 were 0.5 µg/mL (≈ 1.17 µM), 1 µg/mL (≈ 2.34 µM) and 4 µg/mL (≈ 9.36 µM), respectively.
`CC(=O)NC[C@H]1CN(c2ccc([C@H]3[C@@H]4CN(C(=O)c5cn[nH]c5)C[C@@H]43)c(F)c2)C(=O)O1` [Example 40, N-[((5S)-3-{3-fluoro-4-[exo-(1R,5S)-3-(1H-pyrazole-4-carbonyl)-3-azabicyclo[3.1.0]hex-6-yl]phenyl}-2-oxo-1,3-oxazolidin-5-yl)methyl]acetamide]: the MIC against S. aureus UC9213 is 4 µg/mL (≈ 9.36 µM); against S. pneumoniae UC9912, 2 µg/mL (≈ 4.68 µM); in the assay on H. influenzae 30063, 16 µg/mL (≈ 37.4 µM).
The matching figures for `CC(=O)NC[C@H]1CN(c2ccc([C@H]3[C@@H]4CN(C(=O)[C@H]5CCCO5)C[C@@H]43)c(F)c2)C(=O)O1` [Example 41, N-[((5S)-3-{3-fluoro-4-[exo-(1R,5S)-3-(tetrahydrofuran-2-(R)-carbonyl)-3-azabicyclo[3.1.0]hex-6-yl]phenyl}-2-oxo-1,3-oxazolidin-5-yl)methyl]acetamide]: 4 µg/mL (≈ 9.27 µM), 2 µg/mL (≈ 4.64 µM) and 32 µg/mL (≈ 74.2 µM).
Regarding `CC(=O)NC[C@H]1CN(c2ccc([C@H]3[C@@H]4CN(C(=O)[C@@H]5CCCO5)C[C@@H]43)c(F)c2)C(=O)O1` [Example 42, N-[((5S)-3-{3-fluoro-4-[exo-(1R,5S)-3-(tetrahydrofaran-2-(S)-carbonyl)-3-azabicyclo[3.1.0]hex-6-yl]phenyl}-2-oxo-1,3-oxazolidin-5-yl)methyl]acetamide], the MIC against S. aureus UC9213 was 8 µg/mL (≈ 18.5 µM); in the assay on S. pneumoniae UC9912 it was 4 µg/mL (≈ 9.27 µM); with H. influenzae 30063, 32 µg/mL (≈ 74.2 µM).
Turning to `CC(=O)NC[C@H]1CN(c2ccc([C@H]3[C@@H]4CN(c5ncccn5)C[C@@H]43)c(F)c2)C(=O)O1` [Example 43, N-[((5S)-3-{3-fluoro-4-[exo-(1R,5S)-3-(pyrimidin-2-yl)-3-azabicyclo[3.1.0]hex-6-yl]phenyl}-2-oxo-1,3-oxazolidin-5-yl)methyl]acetamide], the MIC against S. aureus UC9213 turned out to be 4 µg/mL (≈ 9.72 µM); with S. pneumoniae UC9912, 1 µg/mL (≈ 2.43 µM); with H. influenzae 30063 it was 32 µg/mL (≈ 77.8 µM).
For `CC(=O)NC[C@H]1CN(c2ccc([C@H]3[C@@H]4CN(c5nn[nH]n5)C[C@@H]43)c(F)c2)C(=O)O1` [Example 44, N-[((5S)-3-{3-fluoro-4-[exo-(1R,5S)-3-(2H-tetrazol-5-yl)-3-azabicyclo[3.1.0]hex-6-yl]phenyl}-2-oxo-1,3-oxazolidin-5-yl)methyl]acetamide], the MIC against S. aureus UC9213 came out at 16 µg/mL (≈ 39.9 µM); against S. pneumoniae UC9912 it was 32 µg/mL (≈ 79.7 µM); in the assay on H. influenzae 30063, 64 µg/mL (≈ 159 µM).
For `CC(=O)NC[C@H]1CN(c2ccc([C@H]3[C@@H]4CN(CCF)C[C@@H]43)c(F)c2)C(=O)O1` [Example 46, N-[((5S)-3-{3-fluoro-4-[exo-(1R,5S)-3-(2-fluoroethyl)-3-azabicyclo[3.1.0]hex-6-yl]phenyl}-2-oxo-1,3-oxazolidin-5-yl)methyl]acetamide], the results for the MIC against S. aureus UC9213, with S. pneumoniae UC9912 and with H. influenzae 30063 were 8 µg/mL (≈ 21.1 µM), 2 µg/mL (≈ 5.27 µM) and 16 µg/mL (≈ 42.2 µM), respectively.
The matching figures for `CC(=O)NC[C@H]1CN(c2ccc([C@H]3[C@@H]4CN(CCO)C[C@@H]43)c(F)c2)C(=O)O1` [Example 47, N-[((5S)-3-{3-fluoro-4-[exo-(1R,5S)-3-(2-hydroxyethyl)-3-azabicyclo[3.1.0]hex-6-yl]phenyl}-2-oxo-1,3-oxazolidin-5-yl)methyl]acetamide]: 4 µg/mL (≈ 10.6 µM), 1 µg/mL (≈ 2.65 µM) and 8 µg/mL (≈ 21.2 µM).
On to `CC(=O)NC[C@H]1CN(c2ccc([C@H]3[C@@H]4CN(CCC#N)C[C@@H]43)c(F)c2)C(=O)O1` [Example 48, N-[((5S)-3-{3-fluoro-4-[exo-(1R,5S)-3-(2-cyanoethyl)-3-azabicyclo[3.1.0]hex-6-yl]phenyl}-2-oxo-1,3-oxazolidin-5-yl)methyl]acetamide], for which the MIC against S. aureus UC9213 came out at 4 µg/mL (≈ 10.4 µM); against S. pneumoniae UC9912, 1 µg/mL (≈ 2.59 µM); with H. influenzae 30063 it was 16 µg/mL (≈ 41.4 µM).
For `CC(=O)NC[C@H]1CN(c2ccc([C@H]3[C@@H]4CN(N(C)C)C[C@@H]43)c(F)c2)C(=O)O1` [Example 49, N-[((5S)-3-{3-fluoro-4-[exo-(1R,5S)-3-dimethylamino-3-azabicyclo[3.1.0]hex-6-yl]phenyl}-2-oxo-1,3-oxazolidin-5-yl)methyl]acetamide], the MIC in the assay with S. aureus UC9213, with S. pneumoniae UC9912 and in the assay with H. influenzae 30063 was over 64 µg/mL in each case.
In the case of `CCC(=O)NC[C@H]1CN(c2ccc([C@H]3[C@@H]4C[S+]([O-])C[C@@H]43)c(F)c2)C(=O)O1` (stereo partly drawn) [Example 50, N-[((5S)-3-{3-fluoro-4-[exo-(1R,5S)-3-oxido-3-thiabicyclo[3.1.0]hex-6-yl]phenyl}-2-oxo-1,3-oxazolidin-5-yl)methyl]proyanamide], the MIC in the assay with S. aureus UC9213 came to 2 µg/mL (≈ 5.26 µM); against S. pneumoniae UC9912 it was 1 µg/mL (≈ 2.63 µM); in the assay on H. influenzae 30063 it was 4 µg/mL (≈ 10.5 µM).
With `CCC(=O)NC[C@H]1CN(c2ccc([C@H]3[C@@H]4CS(=O)(=O)C[C@@H]43)c(F)c2)C(=O)O1` [Example 51, N-[((5S)-3-{4-[exo-(1R,5S)-3,3-dioxido-3-thiabicyclo[3.1.0]hex-6-yl]-3-fluorophenyl}-2-oxo-1,3-oxazolidin-5-yl)methyl]propanamide], the MIC in the assay on S. aureus UC9213 turned out to be 2 µg/mL (≈ 5.04 µM); against S. pneumoniae UC9912 it was 1 µg/mL (≈ 2.52 µM); in the assay with H. influenzae 30063 it was 8 µg/mL (≈ 20.2 µM).
Consider `O=C(NC[C@H]1CN(c2ccc([C@H]3[C@@H]4C[S+]([O-])C[C@@H]43)c(F)c2)C(=O)O1)C1CC1` (stereo partly drawn) [Example 52, N-[((5S)-3-{3-fluoro-4-[exo-(1R,5S)-3-oxido-3-thiabicyclo[3.1.0]hex-6-yl]phenyl}-2-oxo-1,3-oxazolidin-5-yl)methyl]cyclopropanecarboxamide], for which the MIC turned out to be 4 µg/mL (≈ 10.2 µM) with S. aureus UC9213, 1 µg/mL (≈ 2.55 µM) in the assay on S. pneumoniae UC9912 and 4 µg/mL (≈ 10.2 µM) with H. influenzae 30063.
Turning to `O=C(NC[C@H]1CN(c2ccc([C@H]3[C@@H]4CS(=O)(=O)C[C@@H]43)c(F)c2)C(=O)O1)C1CC1` [Example 53, N-[((5S)-3-{3-fluoro-4-[exo-(1R,5S)-3,3-dioxido-3-thiabicyclo[3.1.0]hex-6-yl]phenyl}-2-oxo-1,3-oxazolidin-5-yl)methyl]cyclopropanecarboxamide], the MIC against S. aureus UC9213 was determined as 4 µg/mL (≈ 9.79 µM); with S. pneumoniae UC9912, 2 µg/mL (≈ 4.9 µM); with H. influenzae 30063, 4 µg/mL (≈ 9.79 µM).
Turning to `CC(F)(F)C(=O)NC[C@H]1CN(c2ccc([C@H]3[C@@H]4C[S+]([O-])C[C@@H]43)c(F)c2)C(=O)O1` (stereo partly drawn) [Example 54, 2,2-difluoro-N-[((5S)-3-{3-fluoro-4-[exo-(1R,5S)-3-oxido-3-thiabicyclo[3.1.0]-6-yl]phenyl}-2-oxo-1,3-oxazolidin-5-yl)methyl]propanamide], the results for the MIC against S. aureus UC9213, in the assay on S. pneumoniae UC9912 and in the assay with H. influenzae 30063 were 8 µg/mL (≈ 19.2 µM), 4 µg/mL (≈ 9.61 µM) and 4 µg/mL (≈ 9.61 µM), respectively.
As for `CC(F)(F)C(=O)NC[C@H]1CN(c2ccc([C@H]3[C@@H]4CS(=O)(=O)C[C@@H]43)c(F)c2)C(=O)O1` [Example 55, 2,2-difluoro-N-[((5S)-3-{3-fluoro-4-[exo-(1R,5S)-3,3-dioxido-3-thiabicyclo[3.1.0]hex-6-yl]phenyl}-2-oxo-1,3-oxazolidin-5-yl)methyl]propanamide], the figures for the MIC against S. aureus UC9213, in the assay with S. pneumoniae UC9912 and in the assay with H. influenzae 30063 were 8 µg/mL (≈ 18.5 µM), 2 µg/mL (≈ 4.63 µM) and 16 µg/mL (≈ 37 µM), respectively.
The matching figures for `O=C(NC[C@H]1CN(c2ccc([C@H]3[C@@H]4C[S+]([O-])C[C@@H]43)c(F)c2)C(=O)O1)C1CCC1` (stereo partly drawn) [Example 56, N-[((5S)-3-{3-fluoro-4-[exo-(1R,5S)-3-oxido-3-thiabicyclo[3.1.0]hex-6-yl]phenyl}-2-oxo-1,3-oxazolidin-5-yl)methyl]cyclobutanecarboxamide]: 4 µg/mL (≈ 9.84 µM), 2 µg/mL (≈ 4.92 µM) and 16 µg/mL (≈ 39.4 µM).
On to `O=C(NC[C@H]1CN(c2ccc([C@H]3[C@@H]4CS(=O)(=O)C[C@@H]43)c(F)c2)C(=O)O1)C1CCC1` [Example 57, N-[((5S)-3-{3-fluoro-4-[exo-(1R,5S)-3,3-dioxido-3-thiabicyclo[3.1.0]hex-6-yl]phenyl}-2-oxo-1,3-oxazolidin-5-yl)methyl]cyclobutanecarboxamide], for which the values for the MIC in the assay with S. aureus UC9213, against S. pneumoniae UC9912 and with H. influenzae 30063 were 8 µg/mL (≈ 18.9 µM), 2 µg/mL (≈ 4.73 µM) and 32 µg/mL (≈ 75.7 µM), respectively.
